≈ marks a conversion by molar mass, not a printed value. Where two headings read alike, the source gives them in different places.
What was measured:
[1] = tested on: nitric oxide production in RAW 264.7 cells; assay: Inhibitory effect on nitric oxide production in macrophages (Griess); assay type: cell-based, mouse; settings: LPS 1 μg/ml, RAW 264.7 (FIG. 2); for inhibition of nitric oxide production, rank among the three samples: compared with kaempferol
Description: RAW 264.7 cells, which is a mouse macrophage cell line, were dispensed in a 24-well plate at a concentration of 2×10^5 cells/well, and cultured in an incubator at 37° C. under 5% CO2 for 24 hours. Epigallocatechin gallate (EGCG), genistein, and kaempferol, which were samples dissolved in DMSO, were added thereto according to the concentrations. At this time, the final concentration of DMSO was adjusted to 0.1%. After 30 minutes, LPS (lipopolysaccharide), which is an inflammation inducing substance, was added at a concentration of 1 μg/ml. After that, these were cultured in an incubator at 37° C. under 5% CO2 for 24 hours.
To quantify nitric oxide, 50 ? of Griess reagent A (5% phosphoric acid, 1% sulfanilamide) was added to 50 ? of the cell culture medium, and then the mixture was allowed to stand in a dark place for 5 minutes. 50 ? of Griess reagent B (0.1% N-(1-naphthyl)ethylenediamine dihydrochloride) was further added thereto, and allowed to react in a dark place for 5 minutes. The absorbance of this reactant was measured at 540 nm, which was compared with the standard curve to calculate the final concentration of nitrogen monoxide. A standard curve was obtained by reacting in the same manner as above using sodium nitrite instead of the cell culture medium and then measuring the absorbance.

[2] = tested on: IL-6 release in mouse macrophages RAW 264.7 cells; assay: Inhibition of IL-6 secretion in macrophages (ELISA); assay type: cell-based; settings: for IC50: Mus musculus, RAW264.7, LPS 100 ng/ml
Description: (§1) Mouse macrophage RAW 264.7 was dispensed into a 24-well plate at a concentration of 2×10^5 cells/well, and cultured in an incubator at 37° C. under 5% CO2 using a DMEM medium for 24 hours, and then samples were added according to the concentrations. Thirty minutes after addition of the sample, LPS (100 ng/ml) was added and cultured at 37° C. for 20 hours to collect the culture medium. The secreted IL-6 and TNF-α were respectively quantified using Mouse IL-6 ELISA kit (Invitrogen, Thermo Scientific) and Mouse TNF-α ELISA kit (Invitrogen, Thermo Scientific).

[3] = tested on: TNF-α release in mouse macrophages RAW 264.7 cells; assay: Inhibition of TNF-α secretion in macrophages (ELISA); assay type: cell-based; settings: for IC50: Mus musculus, RAW264.7, LPS 100 ng/ml
Description: as §1

5α-reductase type II = assay: Inhibition of 5α-reductase type II expression in human dermal papilla cells (Western blot); assay type: cell-based; settings: HFDPC; testosterone 10 μM; 72 hours; samples 10, 20 μg/ml; order genistein, kaempferol, EGCG (FIG. 4)
Description: The medium was then removed, and cells were collected by washing with PBS to extract proteins. To extract a protein, a lysis buffer for radio immunoprecipitation assay (RIPA) (sodium chloride 150 mM, sodium dodecyl sulfate (SDS) 0.1%, tris-hydrochloric acid (Tris-HCl: pH 7.5) 50 mM, ethylenediaminetetraacetic acid (EDTA) 2 mM, sodium deoxycholate 0.5%, Triton X-100 1%) was added and reacted, and then centrifuged at 10,000 rpm and 4° C. for 15 minutes to collect the supernatant. Then, the absorbance was measured at 595 nm to determine the protein concentration of each sample. These cell protein samples were mixed with sodium dodecyl sulfate (SDS) and a stain, and subjected to electrophoresis on a 12% SDS polyacrylamide gel.

[4] = tested on: histamine release in RBL-2H3 cells; assay: Inhibition of histamine release in RBL-2H3 cells (Compound 48/80); assay type: cell-based, rat
Description: White rat basophil leukemia cells (RBL-2H3) were dispensed into a 24-well plate at a concentration of 1×10^5 cells/well, and cultured for 24 hours. Samples were added according to the concentrations. After 1 hour, Compound 48/80 (1 mg/ml), which triggers an allergic reaction, was added and cultured for 20 minutes. The well plate was allowed to stand in a refrigerator at 4° C. for 10 minutes, and then the medium was collected and the amount of histamine released into the medium was quantified using the Histamine ELISA kit (Neogen).

[5] = DPPH radical scavenging ability; assay type: biochemical; settings: for DPPH radical scavenging ability (IC50): DPPH 300 μM, 30 minutes
Description: 100 ? l sample and the same amount of DPPH (2,2-diphenyl-1-picrylhydrazyl, 300 μM) solution were mixed in a 96-well plate, and reacted in a dark place for 30 minutes, and the absorbance was measured at 520 nm. The same amount of ethanol was reacted instead of the sample, and the blank value was calculated according to the following Equation.
DPPH radical scavenging ability (%)=[1−(A−B)/C]×100
wherein, A is the absorbance of the sample-added group (DPPH+sample); B is the absorbance of the ethanol-added group (sample+ethanol) instead of DPPH; and C is the absorbance of the ethanol-added group (DPPH+ethanol) instead of the sample.

[6] = ABTS radical scavenging ability; assay type: biochemical; settings: for ABTS radical scavenging ability (IC50): 10 minutes, absorbance 734 nm
Description: The ABTS radical scavenging ability was calculated according to the following Equation.
ABTS radical scavenging ability (%)=[1−(AB)/C]×100
wherein, A is the absorbance of the sample-added group (ABTS+sample); B is the absorbance of the distilled water-added group (sample+distilled water) instead of ABTS; and C is the absorbance of the ethanol-added group (ABTS+ethanol) instead of the sample.

cyclooxygenase-2 (COX-2) = assay: COX-2 expression inhibition in LPS-stimulated RAW 264.7 (Western blot); assay type: cell-based, mouse; settings: 25 μg/ml, LPS 100 ng/ml, Western blot (FIG. 1)
Description: (§2) Mouse macrophage RAW 264.7 was dispensed into a 6-well plate at a concentration of 6×10^5 cells/well (number of cells per well), and cultured in an incubator at 37° C. under 5% CO2 using a DMEM Dulbecco's Modified Eagle's Medium (Sigma-Aldrich, Cat. No. D7777) for 24 hours, and then samples were added according to the concentrations.
(§3) Thirty minutes after the addition of the sample, lipopolysaccharide (LPS, 100 ng/ml) was added, and further cultured for 20 hours. After that, the medium was removed, washed with phosphate buffered saline (PBS) to collect the cells. In order to extract the protein, a lysis buffer for radioimmunoprecipitation assay (RIPA; sodium chloride 150 mM, sodium dodecyl sulfate (SDS) 0.1%, tris-hydrochloric acid (Tris-HCl: pH 7.5) 50 mM, ethylenediaminetetraacetic acid (EDTA) 2 mM, sodium deoxycholate 0.5%, Triton X-100 1%) was added and reacted, and then centrifuged at 10,000 rpm and 4° C. for 15 minutes to obtain the supernatant. The absorbance of the supernatant was then measured at 595 nm to determine the protein concentration of each sample. Then, the cell protein sample was mixed with sodium dodecyl sulfate (SDS) and a stain, and subjected to electrophoresis on a 12% SDS polyacrylamide gel. […]

[7] = tested on: IL-6 secretion in human follicle dermal papilla cells (HFDPC); settings: TST or DHT 10 μM, 72 hours (FIG. 3)
Description: Human follicle dermal papilla cells (HFDPC) were dispensed into a 12-well plate at a concentration of 1×10^5 cells/well, and cultured for 24 hours. After that, the medium was replaced with Dulbecco's modified eagle's medium (DMEM) containing no fetal bovine serum (FBS), and subjected to starvation for 24 hours, and then samples were added according to the concentrations (2, 5, 10, 20 μg/ml). […] Then, the medium was collected, and IL-6 secreted in the medium was quantified using a Human IL-6 ELISA kit (Invitrogen, Thermo Scientific).

[8] = tested on: inducible nitric oxide synthase (iNOS); assay: iNOS expression inhibition in LPS-stimulated RAW 264.7 (Western blot); assay type: cell-based, mouse; settings: 25 μg/ml, LPS 100 ng/ml, Western blot (FIG. 1)
Description: as §2, §3

5-lipoxygenase (5-LO) = assay: Inhibition of 5-lipoxygenase (5-LO) expression in RBL-2H3 (Western blot); assay type: cell-based, rat; settings: Compound 48/80 1 mg/ml (FIG. 5)
Description: White rat basophilic leukemia cells (RBL-2H3) were dispensed into a 6-well plate at a concentration of 3×10^5 cells/well, and cultured in an incubator at 37° C. under 5% CO2 using a DMEM medium for 24 hours. Samples were added according to the concentrations, cultured for 24 hours, and then Compound 48/80 (1 mg/ml), which is substance that induces an allergic reaction, was added, and cultured for 1 hour. After that, the medium was removed, and washed with PBS to collect the cells, and then proteins were extracted. To extract protein, lysis buffer for radioimmunoprecipitation assay (RIPA; sodium chloride 150 mM, sodium dodecyl sulfate (SDS) 0.1%, tris-hydrochloric acid (Tris-HCl: pH 7.5) 50 mM, ethylenediaminetetraacetic acid (EDTA) 2 mM, sodium deoxycholate 0.5%, Triton X-100 1%) was added and reacted, and then centrifuged at 10,000 rpm and 4° C. for 15 minutes to take the supernatant. The absorbance thereof was then measured at 595 nm to determine the protein concentration of each sample. Then, the cell protein sample was mixed with sodium dodecyl sulfate (SDS) and a stain, and subjected to electrophoresis on a 12% SDS polyacrylamide gel. […]

[9] = Rattus norvegicus, Compound 48/80 1 mg/ml
[10] = highest inhibitory effect among EGCG, genistein, kaempferol

SMILES | inhibition of nitric oxide production, rank among the three samples [1] | inhibition of 5α-reductase type II expression (5α-reductase type II) | DPPH radical scavenging ability (IC50) [5] | ABTS radical scavenging ability (IC50) [6] | IC50 ([2]; 20 hours) | IC50 ([3]; 20 hours) | IC50 [4, 9] | also measured
O=C(O[C@@H]1Cc2c(O)cc(O)cc2O[C@@H]1c1cc(O)c(O)c(O)c1)c1cc(O)c(O)c(O)c1 [Epigallocatechin gallate (EGCG), Epigallocatechin gallate] | next most inhibitory | effectively inhibited | 3.40 mg/L | 1.65 mg/L | – | – | – | IL-6 (IC50) ([2]; LPS 100 ng/ml, 20 hours): 98.99 ± 10.87 mg/L; TNF-α (IC50) ([3]; LPS 100 ng/ml, 20 hours): 83.68 ± 3.45 mg/L; histamine release inhibition (IC50) ([4]; Compound 48/80 1 mg/ml): 50.0 ± 9.80 mg/L
O=c1c(-c2ccc(O)cc2)coc2cc(O)cc(O)c12 [Genistein] | slightly decreased the inhibitory power | effectively inhibited | – | – | 8.92 ± 0.08 mg/L (≈ 33 µM) | 14.99 ± 0.11 mg/L (≈ 55.5 µM) | > 1000 mg/L | inhibition of COX-2 expression (cyclooxygenase-2 (COX-2)): mostly inhibited the expression of COX-2; inhibition at 1000 µg/mL ([4]; Rattus norvegicus, at 1000 μg/ml): 46%; DPPH radical scavenging ability ([5]; at 100 ppm): 5.18% at 100 ppm; ABTS radical scavenging ability ([6]; at 100 ppm): 5.29% at 100 ppm; inhibition of the release of IL-6 by DHT or TST ([7]; 5 μg/ml): almost completely inhibited
O=c1c(O)c(-c2ccc(O)cc2)oc2cc(O)cc(O)c12 [Kaempferol] | – | effectively inhibited | 11.66 ± 0.30 mg/L | 6.18 ± 0.08 mg/L | 5.93 ± 0.07 mg/L (≈ 20.7 µM) | 13.6 ± 0.72 mg/L (≈ 47.4 µM) | 0.2 ± 0.02 mg/L (≈ 0.699 µM) | inhibition of iNOS expression [8]: inhibited the expression of iNOS to the control (CON) levels; inhibition of nitric oxide production ([1]; 20 μg/ml): inhibited almost to the control level; inhibition of IL-6 in macrophages (in words) [2, 10]: effectively inhibited; inhibition of TNF-α in macrophages (in words) [3, 10]: effectively inhibited; inhibition of 5-LO expression (5-lipoxygenase (5-LO)): effectively inhibits 5-LO expression at the lowest concentration; inhibition at 0.2 µg/mL ([4]; Rattus norvegicus, at 0.2 μg/ml): > 50%; inhibition of the release of IL-6 by DHT or TST ([7]; 10 μg/ml): almost completely inhibited
